Test results published in US10221163B2 (priority 2015, dated 2019).
Like-named read-outs stand apart in the source and are kept apart here.

Assays:
[1] = system: Serratia marcescens expressing IMP-1 (CL5741); type: cell-based; settings: for Serratia marcescens expressing IMP-1 (CL5741) MITC95: with imipenem 1 μg/ml, 95% inhibition of bacterial growth; for Serratia marcescens MITC95: IMP-1 strain CL5741, with imipenem 1 μg/ml, 95% inhibition of growth
Procedure, shortened: (§1)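 Colonies grown overnight on blood agar at 35° C were suspended in saline, diluted 1:100 into 1.1×CAMHB and dispensed. Imipenem was added to 1 μg/ml, then test compound. After 22 hours to 24 hours at 35° C, absorbance was recorded.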

[2] = system: Escherichia coli expressing NDM-1 (CLB30005, CLB30016); type: cell-based; settings: with imipenem 1 μg/ml; for Escherichia coli expressing NDM-1 (CLB30016) MITC95: 95% inhibition of bacterial growth; for Escherichia coli MITC95: NDM-1 strain, 95% inhibition of growth
Procedure, shortened: as §1

[3] = system: Klebsiella pneumoniae expressing VIM-1 (IHMA599644); type: cell-based; settings: for Klebsiella pneumoniae expressing VIM-1 (IHMA599644) MITC95: with imipenem 1 μg/ml, 95% inhibition of bacterial growth; for Klebsiella pneumoniae MITC95: VIM-1 strain IHMA599644, with imipenem 1 μg/ml, 95% inhibition of growth
Procedure, shortened: as §1

NDM-1 = NDM-1 (Klebsiella pneumoniae, UniProt C7C422); experiment: biochemical; type: biochemical; settings: fluorescence assay, CCF2-FA substrate, 1 pM enzyme, 2 hours at 25° C.; read-out: NDM-1 IC50
Procedure, shortened: (§2)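 Semi-log dose-response curves, fitted with a 4-parameter model, gave IC50s. The underlying signal was CCF2-FA fluorescence following 2 hours at 25° C with enzyme, substrate and inhibitor combined.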

IMP-1 = IMP-1 (Serratia marcescens, UniProt P52699); experiment: biochemical; type: biochemical; settings: CCF2-FA substrate, 2 pM enzyme, 2 hours at 25° C.
Procedure, shortened: as §2

VIM-1 = VIM-1 (Pseudomonas aeruginosa (strain ATCC 15692 / DSM 22644 / CIP 104116 / JCM 14847 / LMG 12228 / 1C / PRS 101 / PAO1), UniProt A0A0F7KYQ8); experiment: biochemical; settings: CCF2-FA substrate, 30 pM enzyme, 2 hours at 25° C.
Description: Enzyme Activity: Determination of IC50
The Class B enzyme activities were measured in the presence of the test inhibitor in a fluorescence assay against a commercially available substrate consisting of a cephalosporin core linking 7-hydroxycoumarin to fluorescein (CCF2-FA). […] In a 384-well microplate, the test inhibitor was incubated with the metallo-β-lactamase enzyme and the substrate for 2 hours at 25° C. […] The IC50 value was determined from semi-logarithmic plots of enzyme inhibition versus inhibitor concentration, with a curve generated using a 4-parameter fit.

[4] = system: Pseudomonas aeruginosa efflux− (MB9799), IMP-1; type: cell-based; settings: C, D serine β-lactamase inhibitor closely related to relebactam; for P. aeruginosa expressing IMP-1, efflux − (MB9799) MITC95: concentration restoring susceptibility to imipenem at 2 μg/mL in the presence of a class A; for Concentration of metallo-β-lactamase inhibitor which restores susceptibility of efflux − (MB9799) strain to imipenem: imipenem at 2 μg/mL, in the presence of a class A
Procedure, shortened: (§3)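 Steps: add fixed imipenem and/or ceftazidime (usually CLSI breakpoint) and fixed AmpC-directed class A/C inhibitor to microbroth MIC wells; titrate MBL inhibitor; record concentration regaining susceptibility for each PAO1-derived strain; divide efflux+ by efflux− value.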

[5] = system: Pseudomonas aeruginosa MB9798 vs MB9799; settings: ratio MITC95 PA_9798/MITC95 PA_9799
Source text: The strain background was Pseudomonas aeruginosa PAO1.
The strain set was then used as a pair to determine the effect of metallo-β-lactamase inhibitors of Formula I on the MIC of imipenem and/or ceftazidime. A fixed concentration of antibiotic was included in standard microbroth MIC tests, usually at the CLSI (Clinical and Laboratory Standards Institute) breakpoint concentration. A fixed amount of a class A/C beta-lactamase inhibitor was also included to inhibit the resident Pseudomonas AmpC enzyme. A serial titration of the metallo-β-lactamase inhibitor was included and the concentration of metallo-β-lactamase inhibitor which restores susceptibility of the strain to the included antibiotic was recorded. That concentration of metallo-β-lactamase inhibitor was then compared between the two strains to determine the fold difference between the efflux+ (MB9798) and efflux− (MB9799) strains. This was taken as an indication of the extent to which the MBLi is subject to efflux.

[6] = system: Pseudomonas aeruginosa efflux+ (MB9798), IMP-1; type: cell-based; design: Concentration of metallo-β-lactamase inhibitor which restores susceptibility of efflux + (MB9798) strain to imipenem: unit not given here; settings: C, D serine β-lactamase inhibitor closely related to relebactam; for P. aeruginosa expressing IMP-1, efflux + (MB9798) MITC95: concentration restoring susceptibility to imipenem at 2 μg/mL in the presence of a class A; for Concentration of metallo-β-lactamase inhibitor which restores susceptibility of efflux + (MB9798) strain to imipenem: imipenem at 2 μg/mL, in the presence of a class A
Procedure, shortened: as §3

[7] = fluorescence assay, read-out: IMP-1 IC50
[8] = fluorescence assay, read-out: VIM-1 IC50

NDM-1, sequence (C7C422 whole entry, looked up, species assumed): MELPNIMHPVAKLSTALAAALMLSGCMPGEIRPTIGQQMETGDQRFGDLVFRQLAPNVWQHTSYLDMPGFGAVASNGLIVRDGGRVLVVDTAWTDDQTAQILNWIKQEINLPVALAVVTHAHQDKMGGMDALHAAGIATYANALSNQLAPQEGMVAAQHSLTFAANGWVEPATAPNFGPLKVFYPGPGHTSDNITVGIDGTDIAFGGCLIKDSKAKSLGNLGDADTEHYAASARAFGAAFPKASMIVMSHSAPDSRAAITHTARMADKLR
IMP-1, sequence (P52699 whole entry, looked up, species assumed): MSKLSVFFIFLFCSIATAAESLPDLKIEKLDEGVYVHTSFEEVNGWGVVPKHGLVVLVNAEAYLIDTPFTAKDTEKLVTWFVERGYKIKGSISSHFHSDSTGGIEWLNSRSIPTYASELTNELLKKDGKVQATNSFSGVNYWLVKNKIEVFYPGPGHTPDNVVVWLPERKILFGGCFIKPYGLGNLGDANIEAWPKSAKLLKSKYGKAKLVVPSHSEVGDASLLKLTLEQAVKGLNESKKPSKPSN

Compound	Serratia marcescens expressing IMP-1 (CL5741) MITC95 [1] [µM]	Escherichia coli expressing NDM-1 (CLB30016) MITC95 [2] [µM]	Klebsiella pneumoniae expressing VIM-1 (IHMA599644) MITC95 [3] [µM]	IC50 (NDM-1) [nM]	IC50 (IMP-1; IMP-1 IC50, fluorescence assay) [nM]	IC50 (VIM-1; VIM-1 IC50, fluorescence assay) [nM]	IC50 (IMP-1; [7]) [nM]	IC50 (VIM-1; [8]) [nM]	P. aeruginosa expressing IMP-1, efflux − (MB9799) MITC95 [4] [µM]	Efflux ratio [5]	P. aeruginosa expressing IMP-1, efflux + (MB9798) MITC95 [6] [µM]	Serratia marcescens MITC95 [1] [µM]	Escherichia coli MITC95 [2] [µM]	Klebsiella pneumoniae MITC95 [3] [µM]	Concentration of metallo-β-lactamase inhibitor which restores susceptibility of efflux − (MB9799) strain to imipenem [4]	Concentration of metallo-β-lactamase inhibitor which restores susceptibility of efflux + (MB9798) strain to imipenem [6]
C[C@H](CN)NS(=O)(=O)c1ccc(-c2cccc3sc(N)nc23)c(-c2nnn[nH]2)c1S(N)(=O)=O [Example 72, (R)-4-(2-aminobenzo[d]thiazol-4-yl)-N^1-(1-aminopropan-2-yl)-3-(1H-tetrazol-5-yl)benzene-1,2-disulfonamide]	1.563	1.563	3.125	0.02	0.27	0.26	–	–	–	–	–	–	–	–	–	–
Nc1nc2c(-c3ccc(S(=O)(=O)NC4C[C@@H]5CN[C@H]4C5)c(S(N)(=O)=O)c3-c3nnn[nH]3)cccc2s1.O=CO (stereo partly drawn) [Example 119, 4-(2-aminobenzo[d[thiazol-4-yl)-N1-((1S,4R)-2-azabicyclo[2.2.1]heptan-6-yl)-3-(1H-tetrazol-5-yl)benzene-1,2-disulfonamide, formate salt]	–	–	–	0.0407	–	–	0.223	0.254	–	–	–	–	–	–	–	–
Nc1nc2c(-c3ccc(S(=O)(=O)NC4C[C@@H]5CN[C@H]4C5)c(S(N)(=O)=O)c3-c3nnn[nH]3)cccc2s1.O=CO (stereo partly shown) [Example 119]	1.563	1.563	3.125	–	–	–	–	–	1.563	0.50	0.7813	–	–	–	–	–
C[N+]1(C)CC[C@@H](NS(=O)(=O)c2ccc(-c3cccc4[nH]c(N)nc34)c(-c3nn[nH]n3)c2S(N)(=O)=O)C1.[Cl-] [Example 233, (R)-3-((4-(2-amino-1H-benzo[d]imidazol-4-yl)-2-sulfamoyl-3-(2H-tetrazol-5-yl)phenyl)sulfonamido)-1,1-dimethylpyrrolidin-1-ium chloride]	0.3906	0.3906	1.563	0.0225	–	–	0.305	–	1.563	1.00	1.563	–	–	–	–	–
C[N+]1(CCN)CC[C@H](NS(=O)(=O)c2ccc(-c3cccc4[nH]c(N)nc34)c(-c3nn[nH]n3)c2S(N)(=O)=O)C1.O=C([O-])O (stereo partly drawn) [Example 249, (3S)-3-{[4-(2-amino-1H-1,3-benzodiazol-4-yl)-2-sulfamoyl-3-(2H-1,2,3,4-tetrazol-5-yl)benzene]sulfonamido}-1-(2-aminoethyl)-1-methylpyrrolidin-1-ium methaneperoxoate]	–	–	–	0.0153	–	–	0.342	–	0.7813	1.00	0.7813	1.563	0.3906	1.563	–	–
NC[C@H]1CCN(S(=O)(=O)c2ccc(-c3cccc4[nH]c(N)nc34)c(-c3nn[nH]n3)c2S(N)(=O)=O)C1 [Example 253, (R)-3-(2-amino-1H-benzo[d]imidazol-4-yl)-6-((3-(aminomethyl)pyrrolidin-1-yl)sulfonyl)-2-(2H-tetrazol-5-yl)benzenesulfonamide]	–	–	–	0.884	–	–	2.68	1.53	0.7813	–	1.563	0.7813	1.563	1.563	–	–
NCc1nc2c(-c3ccc(S(=O)(=O)NC[C@@H]4CNCCN4)c(S(N)(=O)=O)c3-c3nn[nH]n3)cccc2[nH]1 [Example 311, (S)-4-(2-(aminomethyl)-1H-benzo[d]imidazol-4-yl)-N-(piperazin-2-ylmethyl)-3-(2H-tetrazol-5-yl)benzene-1,2-disulfonamide]	–	–	–	0.0986	–	–	–	0.11	1.563	–	1.563	1.563	1.563	3.125	–	–
NCCNS(=O)(=O)c1ccc(-c2cccc(C(=O)N[C@@H]3CNC[C@H]3O)c2)c(-c2nn[nH]n2)c1S(N)(=O)=O [Example 344]	–	–	–	1.39	–	–	4.26	0.52	0.7813	–	1.563	1.563	0.7813	1.563	–	–
Nc1nc2c(-c3ccc(S(=O)(=O)N[C@@H]4C[C@H]4N)c(S(N)(=O)=O)c3-c3nn[nH]n3)cccc2s1 [Example 388, 4-(2-amino-1,3-benzothiazol-4-yl)-N^1-[(1R,2R)-2-aminocyclopropyl]-3-(2H-tetrazol-5-yl)benzene-1,2-disulfonamide]	–	–	–	0.0884	–	0.375	–	–	3.125	–	1.563	3.125	3.125	6.25	–	–
Nc1ccc(-c2ccc(S(=O)(=O)N[C@H]3CNC[C@H]3N)c(S(N)(=O)=O)c2-c2nn[nH]n2)cn1 [Example 413]	–	–	–	0.248	–	–	0.8	0.3	–	–	–	1.563	0.7813	3.125	1.563	1.563
Nc1ccc(-c2ccc(S(=O)(=O)N[C@@H]3CNC[C@@H]3N)c(S(N)(=O)=O)c2-c2nn[nH]n2)cn1 [Example 414]	–	–	–	0.329	–	–	0.786	0.347	–	–	–	0.7813	0.3906	3.125	1.563	1.563
C[C@H](N)Cc1nc2c(-c3ccc(S(=O)(=O)N[C@@H]4CCNC4)c(S(N)(=O)=O)c3-c3nn[nH]n3)cccc2[nH]1 [Example 441, 4-(2-((S)-2-Aminopropyl)-1H-benzo[d]imidazol-4-yl)-N1-((R)-pyrrolidin-3-yl)-3-(2H-tetrazol-5-yl)benzene-1,2-disulfonamide]	–	–	–	0.0811	–	–	1.23	0.15	–	–	–	1.563	1.563	1.563	0.7813	1.563
